In US9284297B2, “Halofuginone analogs for inhibition of tRNA synthetases and uses thereof” (President and Fellows of Harvard College, priority 2008, dated 2016):
Read-outs that look alike come from different tables or passages of the source.

Key:
[1] = system: Th17 differentiation of CD4+ CD25− T cells; assay: Th17 differentiation of CD4+ CD25− T cells (IL-17+ IFNγ− cells, intracellular cytokine staining)
Method: Purified CD4^+ CD25^− T cells were activated in vitro as previously described (Djuretic et al., Nat. Immunol. 8:145, 2007) using 0.3 μg/ml hamster anti-mouse CD3 (clone 145-2C11) (ATCC, Manassas, Va.) and 0.5 μg/ml hamster anti-mouse CD28 (BD Pharmingen, San Jose, Calif.). Activated cell cultures were differentiated using the following combinations of cytokines and antibodies: iTreg—recombinant human TGFβ1 (3 ng/ml—R&D systems, Minneapolis, Minn.), Th17-TGFβ1 (3 ng/ml) plus recombinant mouse IL-6 (30 ng/ml—R&D systems). […] Human IL-2 supernatant (National Cancer Institute) was used in culture at 0.01 U/ml and was added at 48 hours-post activation when T cells were split into tissue culture wells lacking CD3 and CD28 antibodies, with the exception of Th17 cultures that were maintained in the absence of exogenous IL-2. […] All reagents (see below) were added at the time of T cell activation and again at 48 hours post activation unless indicated otherwise.
For detection of intracellular cytokines in murine cells, cultured T or B cells were stimulated with 10 nM PMA (Sigma) and 1 mM ionomycin (Sigma) for 4-5 hours in the presence of 10 mM brefeldin A (Sigma). Stimulated cells were harvested, washed with PBS and fixed with PBS plus 4% paraformaldehyde at room temperature for 20 minutes. Cells were then washed with PBS, permeabilized with PBS supplemented with 1% BSA and 0.5% saponin (Sigma) at room temperature for 10 minutes before cytokine-specific antibodies were added and incubated with cells for an additional 20 minutes at room temperature. […] All stained cells were stored at 4° C. in PBS plus 1% paraformaldehyde prior to FACS analyses.
All cell surface staining was performed in FACS buffer (PBS/2% FBS/0.1% NaN3) and antibodies were incubated with cells on ice for 20-30 minutes. Cells were washed with FACS buffer and fixed with FACS buffer plus 1% paraformaldehyde prior to data acquisition.

[2] = system: CD4+ CD25− T cells (Th1, Th2, iTreg differentiation, proliferation, CD25), CD8+ T cells, B cells; conditions: cited from earlier work
[3] = in vivo; cited from earlier work
[4] = system: dermal ECM deposition; conditions: introduced intraperitoneally, added to food, or applied locally; cited from earlier work
[5] = system: STAT3 phosphorylation; assay: Kinetics of STAT3 phosphorylation in developing Th17 cells; type: cell-based, murine; conditions: TGFβ plus IL-6; 5 nM or 10 nM HF
Method: FIG. 6. […] FIG. 6A is a set of representative histograms displaying the kinetics of STAT3 phosphorylation in developing Th17 cells treated with or without halofuginone. Resting naïve T cells (grey, shaded peak), T cells activated in the presence of TGFβ plus IL-6 (TGFβ/IL-6) treated with 10 nM MAZ1310 (light gray trace), 5 nM HF (medium gray trace), or 10 nM HF (dark gray trace). T cells were fixed at the indicated times and intracellular phospho-STAT3 staining was performed.
(§1) Th17 differentiation is synergistically regulated by TGFβ and the pro-inflammatory cytokines IL-6 and IL-21. […] Since STAT3 is the major transducer of IL-6 and IL-21 signaling, the kinetics of STAT3 phosphorylation in HF-treated T cells were examined.

[6] = system: Th17 differentiation of CD4+ CD25− T cells; conditions: read-out: 50% inhibition of IL-17 expressing cell (Th17) development; cited from earlier work
[7] = system: TGFβ-induced Smad phosphorylation and lymphocyte responses to TGFβ; assay: TGFβ signaling in T and B cells; type: cell-based, murine; conditions: low dose HF; 10 μM SB-431542
Method: FIG. 10. […] FIG. 10A is a set of FACS analyses of CD4^+ CD25^− T cells activated in Th1 or Th2 polarizing conditions, either in the presence or absence of TGFβ. DMSO, 10 nM HF, 10 nM MAZ1310, or 10 μM SB-431542 added as indicated at the time of activation. Intracellular cytokine staining was performed on expanded T cells on day 5.
FIG. 10D depicts western blot analyses of purified CD4^+ CD25^− T cells treated with DMSO, 40 nM MAZ1310, titrating concentrations of HF (2.5-40 nM) or 10 μM SB-431542 for 30 minutes in complete medium supplemented with 0.1% fetal calf serum. T cells were then activated in the presence or absence of 3 ng/ml TGFβ. Whole cell extracts were prepared after 1 hour of stimulation and western blot analyses were performed using the indicated antibodies.
as §1
Whole cell lysates were generated from T cells activated for the indicated times. For STAT3 and Smad2/3 western blots cells were harvested, washed in PBS and lysed in 50 mM Tris, pH 7.4, 0.1% SDS, 1% Triton-X100, 140 mM NaCl, 1 mM EDTA, 1 mM EGTA supplemented with protease inhibitors tablets (Roche, Germany), 1 mM NaF and 1 mM Na3VO4. […]

[8] = system: TGFβ-induced Smad phosphorylation and lymphocyte responses to TGFβ; conditions: cited from earlier work
[9] = system: passive EAE; assay: Passive EAE, transfer of PLP-reactive T cells; type: in vivo, mice; conditions: 2 μg HF daily i.p.
Description: The ability of systemic HF treatment to block IL-17 expression and associated autoimmune inflammation in vivo was examined using two distinct models of experimental autoimmune encephalomyelitis (EAE). […] The second model, a passive model of EAE induction, is initiated by the transfer of myelin proteolipid protein (PLP)-reactive T cells into lymphopenic hosts.
Passive EAE was induced by intravenous transfer of purified CD3^+ splenic T cells isolated from PLP TCR transgenic B10.S mice into syngeneic RAG2-deficient mice (3×10^6 cells/mouse) (Waldner et al., J. Clin. Invest. 113(7):990-997, 2004).
Mice were injected daily with HF (2 μg/mouse) or vehicle control (DMSO) i.p. Clinical signs of EAE were assessed according to the following score: 0, no signs of disease; 1, flaccid tail; 2, weak gait/hind limb paresis; 3, hind limb paralysis; 4, tetraplegia; 5, moribund. Cytokine production during EAE was determined either in peripheral T cells isolated from spleen or lymph nodes of mice prior to disease onset (day 6-10) or in mononuclear cells isolated from the brain and spinal cords of mice with severe disease (clinical score ≧2) between days 15-20. Briefly, splenocytes were stained for intracellular cytokines following erythrocyte lysis with ammonium chloride buffer. T cells were isolated from brain and spinal cords of mice with active EAE following perfusion with cold PBS. […]

In the case of `O=C(CC1NCCCC1O)Cn1cnc2cc(Br)c(Cl)cc2c1=O` (stereo not shown) [Compound 1, 7-bromo-6-chloro-3-[3-(3-hydroxy-2-piperidinyl)-2-oxopropyl]-4(3H)-quinazolinone], the “rescue of inhibited Th17 differentiation by added amino acids” value ([1]; 10 nM halofuginone, 1 mM of the indicated amino acids) is given as “Proline, and no other added amino acid, rescues the inhibition of Th17 differentiation”, the IC50 ([1]; Mus musculus, T-cell, 96 h, read-out: IC50, Th17 differentiation) is given as 3.6 nM and the “concentrations that generally inhibit CD4+ T cell, CD8+ T cell, and B220+ B cell activation” value [2] is given as 20 to 40 nM. For the same molecule, the toxicity in humans [3] was “some toxicity in humans, such as nausea, vomiting, and fatigue, and possibly bleeding complications”, the “dermal ECM deposition” value [4] was “reduces excess dermal ECM deposition” and the STAT3 phosphorylation [5] was “decreased the maintenance of STAT3 phosphorylation, beginning around 12 hours post activation”. The IC50 [6] was ~3 nM, the “effect on TGFβ-induced Smad phosphorylation and other lymphocyte responses to TGFβ” value [7] was “inhibited neither TGFβ-induced Smad phosphorylation nor a variety of other lymphocyte responses to TGFβ” and the “concentrations attenuating TGFβ signaling” value [8] was > 50 nM. The “EAE disease symptoms, passive model” value [9] was “developed disease symptoms with kinetics and severity similar to control treated animals”.
